Measurements as given in PMC8286840, “Identifying SARS-CoV-2 antiviral compounds by screening for small molecule inhibitors of Nsp3 papain-like protease” (Biochemical Journal, 2021).
Counter-ions that a name gives are not always drawn. Like-named read-outs stand apart in the source and are kept apart here.

What was measured:
[1] = target: T1, SARS-CoV-2 PLpro (nsp3 1564–1878) (Severe acute respiratory syndrome coronavirus 2, UniProt P0DTD1); assay: biochemical; design: FRET-quenched peptide (Pro3) cleavage by PLpro, 10 min pre-incubation, slope over 20 min, normalised to no-compound control; conditions: low concentration screen, read-out: % of control remaining
Method: The plates were organized with columns 3–22 containing the compounds; the remaining columns were used for reaction controls including substrate only and substrate with enzyme but no compound (Figure 3Aii). The PLpro enzyme was pre-incubated with the compounds for 10 min, and then the reaction was initiated by the addition of substrate. […] We incubated the inhibitors with PLpro before the enzymatic reaction so that the slow-binding inhibitors will not be missed out [21]. […] Fluorescence was read on a Spark multimode microplate reader (Tecan) with an excitation wavelength at 330 nm and emission wavelength at 420 nm. […] An amount of 5 µl of the enzyme was pre-incubated with compounds for 10 min before the addition of 15 µl substrate. Fluorescence was monitored at 2 min for 20 min with 3 min intervals giving a total of seven readings.

[2] = target: T1, SARS-CoV-2 PLpro (nsp3 1564–1878); assay: biochemical; design: FRET-quenched peptide (Pro3) cleavage by PLpro, 10 min pre-incubation, slope over 20 min, normalised to no-compound control; conditions: high concentration screen, read-out: % of control remaining

C[C@H](CCC(=O)NCCS(=O)(=O)O)[C@H]1CC[C@H]2[C@@H]3[C@@H](O)C[C@@H]4C[C@H](O)CC[C@]4(C)[C@H]3CC[C@]12C [Tauroursodeoxycholic Acid (TUDCA)]
remaining activity at 1.25 µM ([1]; Well no.=8200): 109% | remaining activity at 3.75 µM ([2]; Well no.=8200): 107%

CC(C)(C)[C@]1(O)C[C@@H]2OC(=O)C[C@@]23C(=O)O[C@@H]2OC(=O)[C@H](O)[C@]213 [Bilobalide]
remaining activity at 1.25 µM ([1]; Well no.=3091): 105% | remaining activity at 3.75 µM ([2]; Well no.=3091): 105%

N[C@]1(C(=O)O)CC[C@H](C(=O)O)C1 [trans-ACPD]
remaining activity at 1.25 µM ([1]; Well no.=7040): 98.2% | remaining activity at 3.75 µM ([2]; Well no.=7040): 96.7%

CC(C)C(N)CC(=O)O (stereo not shown) [3-Amino-4-methylpentanoic acid]
remaining activity at 1.25 µM ([1]; Well no.=6403): 103% | remaining activity at 3.75 µM ([2]; Well no.=6403): 105%

C[C@]12CC[C@@H](O)C[C@@H]1CC[C@@H]1[C@@H]2CC[C@]2(C)[C@@H](C(=O)CO)CC[C@@H]12 [3-alpha,21-Dihydroxy-5-alpha-pregnan-20-one]
remaining activity at 1.25 µM ([1]; Well no.=856): 99.8% | remaining activity at 3.75 µM ([2]; Well no.=856): 104%

CC(C)C[C@H](NC(=O)CNC(=O)c1cc(Cl)ccc1Cl)B1OC(=O)C(CC(=O)O)(CC(=O)O)O1 [MLN9708]
remaining activity at 1.25 µM ([1]; Well no.=4810): 101% | remaining activity at 3.75 µM ([2]; Well no.=4810): 103%

CCC(C)N(C)C(=O)c1cc2ccccc2c(-c2ccccc2Cl)n1 (stereo not shown) [PK 11195]
remaining activity at 1.25 µM ([1]; Well no.=185): 99.9% | remaining activity at 3.75 µM ([2]; Well no.=185): 98.2%

COc1cc(=O)oc(/C=C/C=C/C=C/C(C)=C/[C@]2(C)O[C@H](C)[C@](C)(O)[C@H]2O)c1C [Citreoviridin]
remaining activity at 1.25 µM ([1]; Well no.=3391): 92.8% | remaining activity at 3.75 µM ([2]; Well no.=3391): 96.6%

COc1ccc2[nH]cc(CCN)c2c1 [O-Methylserotonin hydrochloride]
remaining activity at 1.25 µM ([1]; Well no.=1076): 94% | remaining activity at 3.75 µM ([2]; Well no.=1076): 97%

CN1C[C@H](C(=O)N[C@]2(C)O[C@@]3(O)[C@@H]4CCCN4C(=O)[C@H](Cc4ccccc4)N3C2=O)C[C@@H]2c3cccc4[nH]cc(c34)C[C@H]21 [Dihydroergotamine mesylate]
remaining activity at 1.25 µM ([1]; Well no.=1701): 98.4% | remaining activity at 3.75 µM ([2]; Well no.=1701): 98.9%

CCCCC1=NC2(CCCC2)C(=O)N1Cc1ccc(-c2ccccc2-c2nnn[nH]2)cc1 [Irbesartan]
remaining activity at 1.25 µM ([1]; Well no.=8251): 105% | remaining activity at 3.75 µM ([2]; Well no.=8251): 105%

CC(C)(O)CC(=O)NCCn1ccc2ncnc(Nc3ccc(Oc4cccc(C(F)(F)F)c4)c(Cl)c3)c21 [TAK-285]
remaining activity at 1.25 µM ([1]; Well no.=4743): 102% | remaining activity at 3.75 µM ([2]; Well no.=4743): 104%

CCn1c2ccccc2c2cc(CNC)ccc21 [PhiKan 083]
remaining activity at 1.25 µM ([1]; Well no.=6830): 93.5% | remaining activity at 3.75 µM ([2]; Well no.=6830): 93.9%

CCCc1nn(C)c2c(=O)[nH]c(-c3cc(S(=O)(=O)N4CCN(C)CC4)ccc3OCC)nc12 [Sildenafil Mesylate]
remaining activity at 1.25 µM ([1]; Well no.=8206): 106% | remaining activity at 3.75 µM ([2]; Well no.=8206): 103%

CC(N)Cc1c[nH]c2ccc(OCc3cccs3)cc12 (stereo not shown) [BW 723C86]
remaining activity at 1.25 µM ([1]; Well no.=279): 98.7% | remaining activity at 3.75 µM ([2]; Well no.=279): 98.9%

COCCOC(=O)C1=C(C)NC(C)=C(C(=O)OC(C)C)C1c1cccc([N+](=O)[O-])c1 (stereo not shown) [Nimodipine]
remaining activity at 1.25 µM ([1]; Well no.=844): 100% | remaining activity at 1.25 µM ([1]; Well no.=1717): 104% | remaining activity at 3.75 µM ([2]; Well no.=844): 97.1% | remaining activity at 3.75 µM ([2]; Well no.=1717): 101%

O=C1CC2(CCCC2)CC(=O)N1CCCCN1CCN(c2ncccn2)CC1 [Buspirone hydrochloride]
remaining activity at 1.25 µM ([1]; Well no.=319): 98.2% | remaining activity at 3.75 µM ([2]; Well no.=319): 99.4%

CC(C)[N+](C)(CCOC(=O)C1c2ccccc2Oc2ccccc21)C(C)C [Propantheline bromide]
remaining activity at 1.25 µM ([1]; Well no.=1401): 102% | remaining activity at 3.75 µM ([2]; Well no.=1401): 102%

CN1CCC(=C2c3ccccc3CCc3cccnc32)CC1 [Azatadine (dimaleate)]
remaining activity at 1.25 µM ([1]; Well no.=7617): 103% | remaining activity at 3.75 µM ([2]; Well no.=7617): 105%

CCCCCCCCCCCCCCCC(=O)O [Palmitic acid]
remaining activity at 1.25 µM ([1]; Well no.=7077): 98.9% | remaining activity at 3.75 µM ([2]; Well no.=7077): 94.2%

O=S(=O)(c1ccc2c(c1)C(=NO)c1cc(S(=O)(=O)N3CCCCC3)ccc1-2)N1CCCCC1 [CIL56]
remaining activity at 1.25 µM ([1]; Well no.=6774): 98.2% | remaining activity at 3.75 µM ([2]; Well no.=6774): 95.6%

CCc1ccc(O)cc1 [4-Ethylphenol]
remaining activity at 1.25 µM ([1]; Well no.=6679): 103% | remaining activity at 3.75 µM ([2]; Well no.=6679): 104%

CCCCc1oc2ccccc2c1C(=O)c1cc(I)c(OCCN(CC)CC)c(I)c1 [Amiodarone hydrochloride]
remaining activity at 1.25 µM ([1]; Well no.=198): 97% | remaining activity at 3.75 µM ([2]; Well no.=198): 98.7%

COc1c(C)c2c(c(O)c1C/C=C(\C)CCC(=O)OCCN1CCOCC1)C(=O)OC2 [Mycophenolate mofetil]
remaining activity at 1.25 µM ([1]; Well no.=1923): 103% | remaining activity at 3.75 µM ([2]; Well no.=1923): 103%

CCCCCCCCCCC/C=C/CCCCCC(=O)O [7(E)-Nonadecenoic acid]
remaining activity at 1.25 µM ([1]; Well no.=4366): 105% | remaining activity at 3.75 µM ([2]; Well no.=4366): 97.4%

C[N+](C)(C)CCCCCCCCCC[N+](C)(C)C [Decamethonium dibromide]
remaining activity at 1.25 µM ([1]; Well no.=683): 94% | remaining activity at 3.75 µM ([2]; Well no.=683): 95.4%

CN1CCN(CC/C=C2/c3ccccc3Sc3ccc(S(=O)(=O)N(C)C)cc32)CC1 [Thiothixene hydrochloride]
remaining activity at 1.25 µM ([1]; Well no.=1281): 106% | remaining activity at 3.75 µM ([2]; Well no.=1281): 112%

Fc1ccc(-c2c3cccc(C(F)(F)F)c3nn2Cc2ccc(F)cc2Cl)cc1 [2-(2-chloro-4-fluorobenzyl)-3-(4-fluorophenyl)-7-(trifluoromethyl)-2H-indazole]
remaining activity at 1.25 µM ([1]; Well no.=6061): 93.7% | remaining activity at 3.75 µM ([2]; Well no.=6061): 94.4%

CN(C)C/C=C(/c1ccc(Br)cc1)c1cccnc1 [Zimelidine dihydrochloride]
remaining activity at 1.25 µM ([1]; Well no.=1534): 96.1% | remaining activity at 3.75 µM ([2]; Well no.=1534): 96%

CC(=O)O/N=C1\C(=O)N(Cc2cc(Cl)ccc2Cl)c2ccc(Cl)cc21 [LDN-57444]
remaining activity at 1.25 µM ([1]; Well no.=5908): 94.9% | remaining activity at 3.75 µM ([2]; Well no.=5908): 91.7%

C=C1C[C@@H]2[C@H](CC[C@]3(C)C(=O)CC[C@@H]23)[C@@]2(C)C=CC(=O)C=C12 [Exemestane]
remaining activity at 1.25 µM ([1]; Well no.=1623): 104% | remaining activity at 3.75 µM ([2]; Well no.=1623): 102%

NC(=O)c1ccc2[nH]ccc2c1 [p38 MAP Kinase Inhibitor VII, SD-169]
remaining activity at 1.25 µM ([1]; Well no.=2531): 99.1% | remaining activity at 3.75 µM ([2]; Well no.=2531): 94.8%

CCCN1CCc2cccc3c2[C@H]1Cc1ccc(O)c(O)c1-3 [R(-)-Propylnorapomorphine hydrochloride]
remaining activity at 1.25 µM ([1]; Well no.=540): 104% | remaining activity at 3.75 µM ([2]; Well no.=540): 108%

CCOC(=O)[C@H](CCc1ccccc1)N[C@@H](C)C(=O)N1Cc2cc(OC)c(OC)cc2C[C@H]1C(=O)O [Moexipril (hydrochloride)]
remaining activity at 1.25 µM ([1]; Well no.=8028): 98.4% | remaining activity at 3.75 µM ([2]; Well no.=8028): 97.8%
